Laboratory results as given in patent publication US20250179059A1 (The Regents of the University of California, priority 2021, published 2025).
Like-named read-outs stand apart in the source and are kept apart here.

Columns and labels:
[1] = test system: human SKM-1 acute myeloid leukemia cells; test: SKM-1 antiproliferation cell-based assay (ATPlite); conditions: Homo sapiens
In short: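 Log-phase cells in RPMI 1640/15% FBS were seeded at 34722 cells/mL and exposed for 4 days to nine-concentration DMSO serial dilutions in triplicate. Viability was read as ATP luminescence (ATPlite 1step), and IC50 values came from variable-slope non-linear regression.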

[2] = target: T1, human BRD4 bromodomain II (Homo sapiens, UniProt O60885); test: Bromodomain binding assay (AlphaScreen), BRD4 BDII
T1 construct: human BRD4 bromodomain II [based on Genbank NM_058243, residues 349-460]; host or cells: E. coli
In short: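 AlphaScreen competition: His6-BRD4 BDI (aa 44-170) or BDII (aa 349-460) vs biotin-H4(1-21) K5/K8/K12/K16Ac peptide; Ni-chelate acceptor/streptavidin donor beads. HEPES pH 7.5, NaCl, CHAPS, BSA, 1% DMSO; RT. 10-pt 3-fold titration, % peptide binding fitted → IC50.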

[3] = SKM-1, 96 h, SKM-1 antiproliferation assay, 4 days, Table C2
[4] = AlphaScreen assay, Table C2, read-out: BRD4 BDII IC50
[5] = SKM-1, SKM-1 antiproliferation assay
[6] = BRD4 BDII AlphaScreen assay, read-out: BRD4 BD2 IC50

SMILES	GI50 [1, 3]	IC50 [2, 4]	GI50 [1, 5]	IC50 [2, 6]
CN1CCN(c2ccc(-c3cccc(-c4ccnc(N5CC6(CNC6)C5)c4)c3O)cc2F)C1=O [Example 322, 1-(3′-(2-(2,6-diazaspiro[3.3]heptan-2-yl)pyridin-4-yl)-3-fluoro-2′-hydroxy-[1,1′-biphenyl]-4-yl)-3-methylimidazolidin-2-one]	30 to 300 nM	10 to 100 nM		
C[C@@H]1CN(c2cc(-c3cc(F)cc(-c4ccc(-n5ccn(C)c5=O)c(Cl)c4)c3O)ccn2)C[C@@H](C)O1 [Example 684, 1-(3-chloro-3′-(2-((2R,6R)-2,6-dimethylmorpholino)pyridin-4-yl)-5′-fluoro-2′-hydroxy-[1,1′-biphenyl]-4-yl)-3-methyl-1H-imidazol-2(3H)-one]	30 to 300 nM	1 to 10 nM		
Cn1ccn(-c2ccc(-c3cc(F)cc(-c4cc(-c5cn[nH]c5)nc(N5CCNCC5)c4)c3O)cc2Cl)c1=O [Example 552, 1-(3-chloro-5′-fluoro-2′-hydroxy-3′-(2-(piperazin-1-yl)-6-(1H-pyrazol-4-yl)pyridin-4-yl)-[1,1′-biphenyl]-4-yl)-3-methyl-1H-imidazol-2(3H)-one]	0.3 to 30 nM	0.01 to 1 nM		
Cn1ccn(-c2ccc(-c3cc(F)cc(-c4cnc(C(F)(F)F)c(N5CCN(C(C)(C)C)CC5)c4)c3O)cc2Cl)c1=O [Example 805, 1-(3′-(5-(4-(tert-butyl)piperazin-1-yl)-6-(trifluoromethyl)pyridin-3-yl)-3-chloro-5′-fluoro-2′-hydroxy-[1,1′-biphenyl]-4-yl)-3-methyl-1H-imidazol-2(3H)-one]	30 to 300 nM	1 to 10 nM		
Cn1ccn(-c2ccc(-c3cc(F)cc(-c4ccnc(N5CCN[C@H](CC(N)=O)C5)c4)c3O)cc2Cl)c1=O [Example 644, (R)-2-(4-(4-(3′-chloro-5-fluoro-2-hydroxy-4′-(3-methyl-2-oxo-2,3-dihydro-1H-imidazol-1-yl)-[1,1′-biphenyl]-3-yl)pyridin-2-yl)piperazin-2-yl)acetamide]	0.3 to 30 nM	0.01 to 1 nM		
Cn1ccn(-c2ccc(-c3cc(F)cc(-c4cnc(C5CC5)c(N5CC(C)(O)C6(CC6)C5)c4)c3O)cc2Cl)c1=O (centres unmarked) [Example 849, 1-(3-Chloro-3′-(6-cyclopropyl-5-(7-hydroxy-7-methyl-5-azaspiro[2.4]heptan-5-yl)pyridin-3-yl)-5′-fluoro-2′-hydroxy-[1,1′-biphenyl]-4-yl)-3-methyl-1H-imidazol-2(3H)-one]			30 to 300 nM	0.01 to 1 nM
Cc1cc(-c2ccc(-n3ccn(C)c3=O)c(Cl)c2)c(O)c(-c2cc(N3CCNCC3)c3nccnc3c2)c1 [Example 562, 1-(3-chloro-2′-hydroxy-5′-methyl-3′-(8-(piperazin-1-yl)quinoxalin-6-yl)-[1,1′-biphenyl]-4-yl)-3-methyl-1H-imidazol-2(3H)-one]	0.3 to 30 nM	0.01 to 1 nM		
C[C@H]1CN(c2cc(-c3cc(F)cc(-c4ccc(-n5ccn(C)c5=O)c(Cl)c4)c3O)cc3[nH]ncc23)CCN1 [Example 595, (S)-1-(3-chloro-5′-fluoro-2′-hydroxy-3′-(4-(3-methylpiperazin-1-yl)-1H-indazol-6-yl)-[1,1′-biphenyl]-4-yl)-3-methyl-1H-imidazol-2(3H)-one]	0.3 to 30 nM	1 to 10 nM		
CC(C)N1CCN(c2cc(-c3cc(F)cc(-c4ccc(-n5ccn(C)c5=O)c(Cl)c4)c3O)cnc2C(F)(F)F)CC1 [Example 804, 1-(3-chloro-5′-fluoro-2′-hydroxy-3′-(5-(4-isopropylpiperazin-1-yl)-6-(trifluoromethyl)pyridin-3-yl)-[1,1′-biphenyl]-4-yl)-3-methyl-1H-imidazol-2(3H)-one]	0.3 to 30 nM	1 to 10 nM		
CC(=O)Nc1cccc(-c2cc(F)cc(-c3cccc(N4CCNCC4)c3)c2O)c1Cl [Example 888]			300 to 3000 nM	> 100 nM

Results, then the compound that gave them:

GI50 [1, 3]	IC50 [2, 4]	GI50 [1, 5]	IC50 [2, 6]	SMILES
0.3 to 30 nM	1 to 10 nM			CCC[C@@H]1CN(c2cc(-c3cc(F)cc(-c4ccc(-n5ccn(C)c5=O)c(Cl)c4)c3O)cc3[nH]ncc23)CCN1 [Example 592, (R)-1-(3-chloro-5′-fluoro-2′-hydroxy-3′-(4-(3-propylpiperazin-1-yl)-1H-indazol-6-yl)-[1,1′-biphenyl]-4-yl)-3-methyl-1H-imidazol-2(3H)-one]
300 to 3000 nM	10 to 100 nM			C[C@H]1CCCN(c2cc(-c3cc(F)cc(-c4ccc(-n5ccn(C)c5=O)c(Cl)c4)c3O)ccn2)C1 [Example 632, (S)-1-(3-chloro-5′-fluoro-2′-hydroxy-3′-(2-(3-methylpiperidin-1-yl)pyridin-4-yl)-[1,1′-biphenyl]-4-yl)-3-methyl-1H-imidazol-2(3H)-one]
		30 to 300 nM	1 to 10 nM	CNc1cc(-c2ccc(-n3ccn(C)c3=O)c(Cl)c2)c(O)c(-c2cccc(N3CCN(C(C)(C)C)CC3)c2)n1 [Example 1031, 1-(4-(2-(3-(4-(tert-Butyl)piperazin-1-yl)phenyl)-3-hydroxy-6-(methylamino)pyridin-4-yl)-2-chlorophenyl)-3-methyl-1H-imidazol-2(3H)-one]
		0.3 to 30 nM	1 to 10 nM	Cc1cc(-c2ccc(-n3ccn(C)c3=O)c(Cl)c2)c(O)c(-c2cnc(N(C)C)c(N3CCC4(CCN4C(C)C)C3)c2)n1 (centres unmarked) [Example 990, 1-(2-chloro-4-(6′-(dimethylamino)-3-hydroxy-5′-(1-isopropyl-1,6-diazaspiro[3.4]octan-6-yl)-6-methyl-[2,3′-bipyridin]-4-yl)phenyl)-3-methyl-1H-imidazol-2(3H)-one]
30 to 300 nM	1 to 10 nM			Cn1ccn(-c2ccc(-c3cc(F)cc(-c4ccnc(N5CCC(C)(O)CC5)c4)c3O)cc2Cl)c1=O [Example 762, 1-(3-chloro-5′-fluoro-2′-hydroxy-3′-(2-(4-hydroxy-4-methylpiperidin-1-yl)pyridin-4-yl)-[1,1′-biphenyl]-4-yl)-3-methyl-1,3-dihydro-2H-imidazol-2-one]
300 to 3000 nM	1 to 10 nM			Cn1ccn(-c2ccc(-c3cc(F)cc(-c4ccnc(N5CCCCC5)c4)c3O)cc2Cl)c1=O [Example 612, 1-(3-chloro-5′-fluoro-2′-hydroxy-3′-(2-(piperidin-1-yl)pyridin-4-yl)-[1,1′-biphenyl]-4-yl)-3-methyl-1H-imidazol-2(3H)-one]
300 to 3000 nM	1 to 10 nM			O=C1CCCN1c1ccc(-c2cc(Cl)cc(-c3ccnc(N4CCNCC4)c3)c2O)cc1F [Example 269, 1-(5′-chloro-3-fluoro-2′-hydroxy-3′-(2-(piperazin-1-yl)pyridin-4-yl)-[1,1′-biphenyl]-4-yl)pyrrolidin-2-one]
≥ 3000 nM	> 100 nM			CN1CCN(c2c(Cl)cc(-c3cc(F)cc(-c4ccnc(N5CCNCC5)c4)c3O)cc2C#N)C1=O [Example 426, 5-chloro-5′-fluoro-2′-hydroxy-4-(3-methyl-2-oxoimidazolidin-1-yl)-3′-(2-(piperazin-1-yl)pyridin-4-yl)-[1,1′-biphenyl]-3-carbonitrile]
0.3 to 30 nM	0.01 to 1 nM			[2H]C([2H])([2H])n1ccn(-c2ccc(-c3cc(F)cc(-c4ccnc(N5CC[C@H](N)C5)c4)c3O)cc2Cl)c1=O [Example 451, (S)-1-(3′-(2-(3-aminopyrrolidin-1-yl)pyridin-4-yl)-3-chloro-5′-fluoro-2′-hydroxy-[1,1′-biphenyl]-4-yl)-3-deuteromethyl-1H-imidazol-2(3H)-one]
